# In patent US20240228446A1, “PREPARATION METHOD FOR BICYCLIC COMPOUND AND APPLICATION AS ANTIFUNGAL AGENT” (priority 2021, published 2024):
# Read-outs that look alike come from different tables or passages of the source.
# Legend:
# [1] = system: Aspergillus fumigatus ATCC MYA-4609; assay: Minimal inhibitory concentration (MIC) test on fungal growth (CLSI M38, Aspergillus); type: cell-based; settings: for MIC: Aspergillus fumigatus, read-out: MIC Aspergillus fumigatus ATCC MYA-4609
# Experimental: • RPMI1640 medium: Brand: Gibco, article number: 31800-014 • Sabouraud dextrose agar (SDA): Brand: Hope Bio, article number: HB0253-81 • Voriconazole: Brand: Adamas, article number: 22105A • Amphotericin B: Brand: AbCam, article number: ab141199
# MIC test was conducted in accordance with the guidelines and requirements of CLSI M27 (for yeasts) and M38 (for Aspergillus).
# Strain preparation: The strains were inoculated 1 day in advance by streaking on SDA plates with glycerol strains stored at −80° C. The strains were cultured at 35° C. and 40 to 60% humidity for 18 to 24 hours. Streak inoculation of Aspergillus fumigatus and Cryptococcus neoformans was required to be done 3 days and 2 days in advance, respectively.
# Preparation of culture medium and compounds: The liquid culture medium RPMI was prepared with pure water, and 0.165 mol/L MOPS was added to adjust the pH to 7.0. The mixture was filtered with a 0.22 μm-membrane filter, sterilized, and stored at 4° C. (no more than 3 months). 0.85% physiological saline was sterilized at 121° C. for 30 min and then stored at room temperature (no more than 1 week). The compounds were dissolved in DMSO to 12.8 mg/mL and stored at −20° C.
# For Aspergillus, 5 mL of physiological saline was added to cover the mycelium, and the spores were gently scraped off with a spreader. The spore suspension was then transferred to a sterile test tube. An appropriate amount of spore suspension was taken and counted under a microscope using a hemocytometer. Spore concentration was adjusted to approximately 0.4 to 5×10^4 spores/mL using RPMI1640 medium.
# The compound was diluted to the highest 800 μg/mL (or 400 μg/mL) with DMSO, and a 10-step 2-fold gradient dilution was performed, resulting in 11 concentrations. 2 μL of the gradient-diluted compound was transferred to the corresponding wells of a 96-well plate, and then 198 μL of the inoculum was transferred to the test plate. The plate was incubated at 35° C. for 24 hours (Aspergillus fumigatus and Cryptococcus neoformans were incubated for 48 and 72 hours, respectively).
# After the incubation, the growth of the fungi was visually observed. The lowest concentration of the compound that inhibited the growth of yeast by 50% (inhibited Aspergillus by 100%) was defined as the minimum inhibitory concentration (MIC, μg/mL). A magnifying glass or reading at OD530 nm could be used to assist in determining the MIC. Photos were taken of the test plates for record keeping.
# [2] = system: Candida albicans ATCC MYA-2876; assay: Minimal inhibitory concentration (MIC) test on fungal growth (CLSI M27, yeasts); type: cell-based; settings: for MIC: Candida albicans, read-out: MIC Candida albicans ATCC MYA-2876
# Outline: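 Broth microdilution followed CLSI M27 in RPMI1640 buffered with 0.165 M MOPS, pH 7.0, with a final inoculum of 500–2500 CFU/mL. Eleven 2-fold compound concentrations were tested, and plates were incubated 24 h at 35 °C. MIC was the lowest concentration giving 50% growth inhibition, read visually with optional OD530 assistance.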
# [3] = lowest concentration inhibiting Aspergillus by 100%, 35° C., 48 hours, RPMI1640
# [4] = lowest concentration inhibiting growth of yeast by 50%, 35° C., 24 hours, RPMI1640
Compound,"MIC [1, 3] [µg/mL]","MIC [2, 4] [µg/mL]",other results
CNC(=O)COc1ccc(C23CC(C(F)(F)C(O)(Cn4cncn4)c4ccc(F)cc4F)(C2)C3)cc1 (centres unmarked) [Compound 35],2,≤ 0.0039,
CC(C)(O)COc1ccc(C23CC(C(F)(F)[C@](O)(Cn4cnnn4)c4ccc(F)cc4F)(C2)C3)cc1 [Compound 36A],4,0.0078,
CC(C)(O)COc1ccc(C23CC(C(F)(F)C(O)(Cn4cnnn4)c4ccc(F)cc4F)(C2)C3)cc1 (centres unmarked) [Compound 36],8,≤ 0.0039,
CC(C)(O)COc1ccc(C23CC(C(F)(F)[C@](O)(Cn4cncn4)c4ccc(F)cc4F)(C2)C3)cc1 [Compound 37A],1,≤ 0.0039,
CC(C)(O)COc1ccc(C23CC(C(F)(F)C(O)(Cn4cncn4)c4ccc(F)cc4F)(C2)C3)cc1 (centres unmarked) [Compound 37],2,≤ 0.0039,
O[C@@](Cn1cnnn1)(c1ccc(F)cc1F)C(F)(F)C12CC(c3ccc(O[C@@H]4CCOC4)cc3)(C1)C2 [Compound 40A],,,"MIC Aspergillus fumigatus ATCC MYA-4609 [1, 3]: 4 µg/mL; MIC Candida albicans ATCC MYA-2876 [2, 4]: ≤0.0039 µg/mL"
OC(Cn1cnnn1)(c1ccc(F)cc1F)C(F)(F)C12CC(c3ccc(O[C@@H]4CCOC4)cc3)(C1)C2 (some centres unmarked) [Compound 40],16,≤ 0.0039,
O[C@@](Cn1cnnn1)(c1ccc(F)cc1F)C(F)(F)C12CC(c3ccc(O[C@H]4CCOC4)cc3)(C1)C2 [Compound 41A],,,"MIC Aspergillus fumigatus ATCC MYA-4609 [1, 3]: 8 µg/mL; MIC Candida albicans ATCC MYA-2876 [2, 4]: ≤0.0039 µg/mL"
OC(Cn1cnnn1)(c1ccc(F)cc1F)C(F)(F)C12CC(c3ccc(O[C@H]4CCOC4)cc3)(C1)C2 (some centres unmarked) [Compound 41],8,0.0078,
O[C@@](Cn1cnnn1)(c1ccc(F)cc1F)C(F)(F)C12CC(c3ccc(OCC(F)(F)F)nc3)(C1)C2 [Compound 46A],,,"MIC Aspergillus fumigatus ATCC MYA-4609 [1, 3]: 2 µg/mL; MIC Candida albicans ATCC MYA-2876 [2, 4]: 0.0078 µg/mL"
O[C@](Cn1cncn1)(CC12CC(c3ccc(OCC(F)(F)F)cc3)(C1)C2)c1ccc(F)cc1F [Compound 49A],0.5,≤ 0.0039,
OC(Cn1cncn1)(CC12CC(c3ccc(OCC(F)(F)F)cc3)(C1)C2)c1ccc(F)cc1F (centres unmarked) [Compound 49],1,0.0078,
OCC(F)(F)COc1ccc(C23CC(C(F)(F)[C@](O)(Cn4cnnn4)c4ccc(F)cc4F)(C2)C3)cc1 [Compound 50A],2,0.0078,
OCC(F)(F)COc1ccc(C23CC(C(F)(F)C(O)(Cn4cnnn4)c4ccc(F)cc4F)(C2)C3)cc1 (centres unmarked) [Compound 50],4,0.016,
O[C@H](COc1ccc(C23CC(C(F)(F)[C@](O)(Cn4cnnn4)c4ccc(F)cc4F)(C2)C3)cc1)C(F)(F)F [Compound 51A],1,≤ 0.0039,
O[C@@H](COc1ccc(C23CC(C(F)(F)[C@](O)(Cn4cnnn4)c4ccc(F)cc4F)(C2)C3)cc1)C(F)(F)F [Compound 51B],,,"MIC Aspergillus fumigatus ATCC MYA-4609 [1, 3]: 4 µg/mL; MIC Candida albicans ATCC MYA-2876 [2, 4]: 0.0078 µg/mL"
OC(COc1ccc(C23CC(C(F)(F)C(O)(Cn4cnnn4)c4ccc(F)cc4F)(C2)C3)cc1)C(F)(F)F (centres unmarked) [Compound 51],4,0.0078,
COCCCOc1ccc(C23CC(C(F)(F)C(O)(Cn4cnnn4)c4ccc(F)cc4F)(C2)C3)cc1 (centres unmarked) [Compound 61],8,0.016,
OC(Cn1cnnn1)(c1ccc(F)cc1F)C(F)(F)C12CC(c3ccc(OCCN4CCOCC4)cc3)(C1)C2 (centres unmarked) [Compound 65],,,MIC ([1]; 48 h): 32 µg/mL; MIC ([2]; 24 h): 0.0078 µg/mL
N#CCOc1ccc(C23CC(C(F)(F)C(O)(Cn4cnnn4)c4ccc(F)cc4F)(C2)C3)cc1 (centres unmarked) [Compound 69],,,MIC ([1]; 48 h): 4 µg/mL; MIC ([2]; 24 h): 0.016 µg/mL
OC(Cn1cnnn1)(c1ccc(F)cc1F)C(F)(F)C12CC(c3ccc(OC[C@H]4CCCO4)cc3)(C1)C2 (some centres unmarked) [Compound 76],,,MIC ([1]; 48 h): 8 µg/mL; MIC ([2]; 24 h): 0.016 µg/mL
OC(Cn1cncn1)(c1ccc(F)cc1F)C(F)(F)C12CC(c3ccc(OC(F)F)cc3)(C1)C2 (centres unmarked) [Compound 81],1,≤ 0.0039,
